{
  "source": "PubChem BioAssay AID651684",
  "about": "(Sanford-Burnham Center for Chemical Genomics, 2012)",
  "note": "Calls of active or inactive are those of the source.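 The calls were made as follows: active = any single replicate giving an EC50 below 30 µM; inactive = the rest.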",
  "data": [
    {"system": "Pro5-aDG cells, alpha-DG glycosylation, IIH6 AlphaLISA", "experiment": "potency of alpha-dystroglycan glycosylation enhancers – Pro5-aDG cells, AlphaLISA, dose response (AID 651684)", "values": [
      {"smiles": "O=C(Nc1ccccc1F)c1ccc([N+](=O)[O-])s1", "EC50": "8.89 µM"},
      {"smiles": "c1cncc(-c2nnc(-c3cccnc3)nn2)c1", "EC50": "8.73 µM"},
      {"smiles": "c1ccc2c(-c3cc(C4CCNCC4)[nH]n3)cccc2c1", "EC50": "> 80 µM (inactive)"},
      {"smiles": "CCc1nc2ccc(C(=O)NC3CCN(Cc4ccccc4)CC3)cn2c1N(C)Cc1cc2ccccc2s1", "EC50": "6.07 µM"},
      {"smiles": "COc1ccc(Cc2nc(-c3ccc(NC(=O)c4cccnc4)cc3)no2)cc1", "EC50": "1.52 µM"},
      {"smiles": "COc1ccccc1NC(=O)Nc1nc(C(N)Cc2ccccc2)cs1", "note": "(configuration not stated)", "EC50": "> 80 µM (inactive)"},
      {"smiles": "Cc1cccc(CN2CCC(CNC(=O)Nc3ccc(F)c(Cl)c3)CC2)c1", "EC50": "8.57 µM"},
      {"smiles": "CC(C)N1CCN(c2ccc(OCC3COC(Cn4cncn4)(c4ccc(Cl)cc4Cl)O3)cc2)CC1", "note": "(configuration not stated)", "EC50": "9.77 µM"},
      {"smiles": "CCC(C)Nc1nc(-c2c[nH]c3ccccc23)cs1", "note": "(configuration not stated)", "EC50": "4.36 µM"},
      {"smiles": "CCCCCNCC(=O)Nc1cccc(C(=O)Nc2cccc(C(F)(F)F)c2)c1", "EC50": "11.6 µM"},
      {"smiles": "N#Cc1ccsc1NC(=O)c1cccc(-n2cnnn2)c1", "EC50": "20.7 µM"},
      {"smiles": "CN1CCN(c2ccc(S(=O)(=O)N3CCCCC3)cc2NC(=O)/C=C/c2ccc(OC(F)F)cc2)CC1", "EC50": "> 80 µM (inactive)"},
      {"smiles": "Cc1cc(C)n(-c2nc(NCCCN(C)C)c3c4c(sc3n2)CCCC4)n1", "EC50": "16.1 µM"},
      {"smiles": "Cc1cc(NC2=CC(=O)C(=O)c3ccccc32)no1", "EC50": "6.66 µM"},
      {"smiles": "CC(=O)c1ccc(N2CCN(C(=O)Nc3ccc(C(C)C)cc3)CC2)cc1", "EC50": "12.8 µM"},
      {"smiles": "CNc1nc(-c2c[nH]c3ccccc23)cs1", "EC50": "4.99 µM"},
      {"smiles": "CCCn1c(=N)n(CC(=O)c2ccc(Cl)c(Cl)c2)c2ccccc21", "EC50": "31.2 µM (inactive)"},
      {"smiles": "Brc1ccc2ncnc(NCc3ccccc3)c2c1", "EC50": "3.34 µM"},
      {"smiles": "CCOC(=O)N/N=C\\c1ccc([N+](=O)[O-])s1", "EC50": "12.3 µM"},
      {"smiles": "Cc1cccc(/C=C2/Sc3ccc(C(=O)NCCN4CCCC4)cc3NC2=O)c1", "EC50": "> 80 µM (inactive)"},
      {"smiles": "Cc1cccc(NC(=S)N(CCCN2CCCC2)Cc2cccn2Cc2ccc(Cl)cc2)c1", "EC50": "> 80 µM (inactive)"},
      {"smiles": "Cn1c(=N)n(CC(=O)c2ccc(Br)cc2)c2ccccc21", "EC50": "42.7 µM (inactive)"},
      {"smiles": "N=c1c2c(ncn1CCCO)Oc1c(ccc3ccccc13)C2c1ccccc1", "note": "(configuration not stated)", "EC50": "> 80 µM (inactive)"},
      {"smiles": "O=C1C(Cl)=C(NCc2ccco2)C(=O)c2ccccc21", "EC50": "4.97 µM"},
      {"smiles": "Cc1ccnc(-n2c(C)nc3ccccc3c2=O)c1", "EC50": "> 80 µM (inactive)"},
      {"smiles": "CCCC[n+]1ccn(C2=C([O-])c3ccccc3C(=O)/C2=N\\S(=O)(=O)c2ccc(Br)cc2)c1", "EC50": "6.95 µM"},
      {"smiles": "CCn1c(=N)n(CC(=O)c2ccc(Cl)c(Cl)c2)c2ccccc21", "EC50": "32 µM (inactive)"},
      {"smiles": "C/C(=N/NC(=O)C(O)(c1ccccc1)c1ccccc1)c1ccc([N+](=O)[O-])o1", "EC50": "12.7 µM"},
      {"smiles": "COc1cc(/C=C/C(=O)Nc2nc3ccc(S(=O)(=O)NC(C)C)cc3s2)cc(OC)c1OC", "EC50": "9.21 µM"},
      {"smiles": "CN(C)CCCNS(=O)(=O)c1ccc(NC2CCCCCC2)c([N+](=O)[O-])c1", "EC50": "6.11 µM"},
      {"smiles": "O=C(Nc1cccc2ccccc12)c1ccc([N+](=O)[O-])s1", "EC50": "6.88 µM"},
      {"smiles": "CN1CCN(c2ncnc3c2ncn3[C@H]2CN(Cc3ccc(-c4ccccc4)cc3)C[C@@H](CO)O2)CC1", "EC50": "16.1 µM"},
      {"smiles": "COc1cc(CNC(=O)Nc2nc(C(N)Cc3ccc(Cl)cc3)cs2)cc(OC)c1OC", "note": "(configuration not stated)", "EC50": "> 80 µM (inactive)"},
      {"smiles": "CCOC(=O)c1cc(-c2ccc(F)cc2)n(CCC(=O)NC2CCN(Cc3ccccc3)CC2)c1C", "EC50": "> 80 µM (inactive)"},
      {"smiles": "CCOc1ccc(N2CC(C(=O)N3CCN(c4ccccn4)CC3)CC2=O)cc1", "note": "(configuration not stated)", "EC50": "11.8 µM"},
      {"smiles": "CC(C)c1ccc(NC(=O)C2Cc3c(-c4ccc(Cl)cc4)ccnc3O2)cc1", "note": "(configuration not stated)", "EC50": "3.98 µM"},
      {"smiles": "CCOc1ccc(-n2cc(C(=O)N3CCCCCC3)c3cc(OC)c(OC)cc3c2=O)cc1", "EC50": "5.6 µM"},
      {"smiles": "Cc1cc(NCc2ccccn2)n2ncc(-c3ccc(Cl)cc3)c2n1", "EC50": "3.48 µM"},
      {"smiles": "COc1cc(CNCCN(C)C)ccc1OCc1c(F)cccc1Cl", "EC50": "18 µM"},
      {"smiles": "CC(C)n1cc(CN2CCCC(C(=O)Nc3cccc(-c4cc5ccccc5[nH]4)c3)C2)cn1", "note": "(configuration not stated)", "EC50": "> 80 µM (inactive)"},
      {"smiles": "CS(=O)(=O)c1ccc(Nc2nc(C(N)Cc3ccc(Cl)cc3)cs2)cc1", "note": "(configuration not stated)", "EC50": "8.93 µM"},
      {"smiles": "CC1CCCN(CCCNC(=O)c2nn(C)c3c2CSc2ccccc2-3)C1", "note": "(configuration not stated)", "EC50": "8.18 µM"},
      {"smiles": "CCN(CC)CCn1c(=N)n(CC(=O)c2ccc(C)cc2)c2ccccc21", "EC50": "24.5 µM"},
      {"smiles": "Cc1cncn1CCc1nc2c3ccccc3nc(SCC(=O)Nc3cccc(Cl)c3)n2n1", "EC50": "> 80 µM (inactive)"},
      {"smiles": "CN1N=C(N)c2cn(C3OC(COP(=O)(O)O)C(O)C3O)c3ncnc1c23", "note": "(configuration not stated)", "EC50": "35.1 µM (inactive)"},
      {"smiles": "COCCN1CCC(CNCc2cn(-c3cc(C)ccc3C)nc2-c2ccccc2)C1", "note": "(configuration not stated)", "EC50": "> 80 µM (inactive)"},
      {"smiles": "CN(C)CCCNC(=O)/C=C/c1ccc(OCc2c(F)cccc2Cl)cc1", "EC50": "9.37 µM"},
      {"smiles": "CCCCN1CCc2c1nc1ccc(Br)cc1c2N", "EC50": "> 80 µM (inactive)"},
      {"smiles": "O=C(CNC(=O)c1ccccc1Cl)N/N=C/c1ccc([N+](=O)[O-])s1", "EC50": "7.48 µM"},
      {"smiles": "CC1CCCN(S(=O)(=O)c2ccc(C(=O)Nc3sc4c(c3C(N)=O)CCN(C)C4)cc2)C1", "note": "(configuration not stated)", "EC50": "12.3 µM"},
      {"smiles": "CC(C)c1ccc(-c2cc(C(=O)N3CCOCC3)c3cc(Br)ccc3n2)cc1", "EC50": "6.31 µM"},
      {"smiles": "CCCCN(C)CCNC(=O)c1cc(-c2cccnc2)nc2ccc(S(=O)(=O)N3CCC(C)CC3)cc12", "EC50": "> 80 µM (inactive)"},
      {"smiles": "CCn1cc(CN2CCC(C(=O)Nc3cccc(-c4cccc(Cl)c4)c3)CC2)c(C)n1", "EC50": "6.99 µM"},
      {"smiles": "C/C=C/c1ccc(OCCCNC2CCCC2)c(OC)c1", "EC50": "11.7 µM"},
      {"smiles": "CCCCCOc1ccc(NC(=O)C(=O)NCC2CCCN2CC)cc1", "note": "(configuration not stated)", "EC50": "8.54 µM"},
      {"smiles": "CCC(c1nnnn1Cc1cccs1)N1CCN(c2nc3ccccc3s2)CC1", "note": "(configuration not stated)", "EC50": "22.6 µM"},
      {"smiles": "CCCCCOc1ccc(/C(C)=N/NC2=NCCN2)cc1", "EC50": "5.81 µM"},
      {"smiles": "N=c1n(CCN2CCOCC2)c2ccccc2n1CC(=O)c1ccc(Cl)c(Cl)c1", "EC50": "47.1 µM (inactive)"},
      {"smiles": "COc1ccc(CN2CCC(C(=O)Nc3ccc(Oc4cccnc4)cc3)CC2)c(C)c1C", "EC50": "8.89 µM"},
      {"smiles": "COCCNc1nc(NCCOc2ccccc2)c2sc(-c3ccccc3)cc2n1", "EC50": "7.86 µM"},
      {"smiles": "COc1cc2[nH]c3c(=O)n4c(nc3c2cc1OC)SCCC4", "EC50": "6.47 µM"},
      {"smiles": "O=C(CNC(=O)c1ccccc1)N/N=C/c1ccc([N+](=O)[O-])s1", "EC50": "6.46 µM"},
      {"smiles": "CC(C)Oc1ccc(OCCCN2CCCCCC2)cc1", "EC50": "12.4 µM"},
      {"smiles": "CC(C)(C)c1ccc(C(=O)Nc2ccc(C(=O)NCc3cccnc3)cc2)cc1", "EC50": "2.48 µM"},
      {"smiles": "CCCn1c(=N)n(CC(=O)c2ccc(Cl)cc2)c2ccccc21", "EC50": "33.6 µM"},
      {"smiles": "Cc1cc(Br)ccc1OCCCCNC(C)(C)C", "EC50": "12.2 µM"},
      {"smiles": "CN1CCN(S(=O)(=O)c2cccc(C(=O)Nc3sccc3C#N)c2)CC1", "EC50": "37.6 µM"},
      {"smiles": "CC(C)COc1ccc(CSCCNC(=S)Nc2ccccc2)cc1", "EC50": "6.37 µM"},
      {"smiles": "CCOc1ccc(NC(=O)c2ccc(F)c(S(=O)(=O)N3CCN(c4ccccn4)CC3)c2)cc1", "EC50": "> 80 µM (inactive)"},
      {"smiles": "N#Cc1ccc(-c2nc3c4ccccc4ccn3c2CC2CCCCC2)cc1", "EC50": "7.97 µM"},
      {"smiles": "CCc1ccc(C(CNC(=O)c2ccc3c(=O)n(-c4ccccc4F)c(=S)[nH]c3c2)N(C)C)cc1", "note": "(configuration not stated)", "EC50": "1.9 µM"},
      {"smiles": "CCc1ccc(C2c3[nH]c4ccccc4c3CCN2C(=O)CN2CCN(CC)CC2)cc1", "note": "(configuration not stated)", "EC50": "> 80 µM (inactive)"},
      {"smiles": "O=C1C(=O)N(CCS(=O)(=O)c2ccccc2)c2ccc(F)cc21", "EC50": "9.36 µM"},
      {"smiles": "C=CCn1c(=N)n(CC(=O)c2ccc(Cl)cc2)c2ccccc21", "EC50": "41.6 µM (inactive)"},
      {"smiles": "Brc1cccc(-c2nc3c4ccccc4ccn3c2CC2CCCCC2)c1", "EC50": "23.7 µM"},
      {"smiles": "CC(=O)Oc1c(Cl)cc(N(C(C)=O)S(=O)(=O)c2ccccc2)c2ccccc12", "EC50": "3.17 µM"},
      {"smiles": "N#Cc1ccsc1NC(=O)c1ccc2ncsc2c1", "EC50": "42.7 µM"},
      {"smiles": "Cc1ccc(NC(=O)c2ccc([N+](=O)[O-])s2)cc1S(=O)(=O)N1CCOCC1", "EC50": "5.92 µM"},
      {"smiles": "Cc1nc(SCC(=O)Nc2cc(C(N)=O)cc(C(N)=O)c2)c2c(C)c(C)sc2n1", "EC50": "28.5 µM"},
      {"smiles": "CC(C)OC(=O)CN1C(=O)C(=O)c2ccccc21", "EC50": "6.56 µM"},
      {"smiles": "NC(c1csc(Nc2cc(Oc3ccccc3)ncn2)n1)C1CCCCC1", "note": "(configuration not stated)", "EC50": "7.32 µM"},
      {"smiles": "COc1cccc(C(=O)Cn2c(=N)n(C)c3ccccc32)c1", "EC50": "58.4 µM (inactive)"}
    ]}
  ]
}
